# Experiment: Accelerated stability study of pranoprofen batches (impurity content by HPLC)
# Assay type: physicochemical
# Conditions: 40° C.±2° C., RH 75%±5%; for Maximum single impurity: maximum unknown single impurity
# Description: In the present invention, unless otherwise specified, the accelerated experiment is carried out under the conditions of 40° C.±2° C. and RH75%±5% in accordance with the regulations in the “Technical Guidelines for Stability Research of Chemical Drugs”; preferably, an average value of 3 samples measured in parallel is taken.
# In the present invention, unless otherwise specified, the content of each impurity or total impurities is measured by high performance liquid chromatography. Preferably, the chromatographic conditions comprise: using octadecylsilane-bonded silica gel as filler (5 μm, 250 mm×4.6 mm); using 0.05 mol/L sodium perchlorate aqueous solution-methanol (90:10, adding perchloric acid to adjust pH to 3.2) as mobile phase A, methanol as mobile phase B, following the gradient elution in Table 10, flow rate of 1.0 ml/min, column temperature of 40° C., detection wavelength of 275 nm.
# In accordance with the relevant regulations in the “Technical Guidelines for Stability Research of Chemical Drugs”, the samples of the above three batches were taken and tested for 6 months under the conditions of 40° C.±2° C. and RH 75%±5%. And at the end of the 0th, 1st, 2nd, 3rd and 6th months of the experiment, the samples were taken for the detection of indicators.
# The experiment was carried out according to the high performance liquid chromatography (the General Rule 0512 of the Chinese Pharmacopoeia, 2015 edition), in which octadecylsilane bonded silica gel was used as filler (5 μm, 250 mm×4.6 mm); 0.05 mol/L sodium perchlorate aqueous solution-methanol (90:10, adjusted to pH 3.2 by adding perchloric acid) was used as mobile phase A, methanol was used as mobile phase B, and gradient elution was carried out according to the table below, flow rate was 1.0 ml/min, column temperature was 40° C., and detection wavelength was 275 nm.
# 10 μl of the test solution was precisely taken and injected into the liquid chromatograph. If there were impurity peaks in the chromatogram of the test solution, a single impurity must not exceed 0.1%, and the sum of impurities must not exceed 0.5%.
# The impurity objects to be detected were total impurity, impurity A, impurity C, impurity D, impurity L and maximum single impurity; and the detection conditions were the same as above.
# Preparation of test solution: 50 mg of this product was taken, dissolved in a solvent (acetonitrile-water=1:1) and diluted to 50 ml to obtain the test solution.
# Control stock solution of mixed impurities: 10.0 mg of each of impurities A, C, D, and L were weighed, respectively, and added to 10.0 ml volumetric flask, respectively, then added with methanol for dissolution and dilution to the mark, 1.0 ml of each of the above solutions was taken and added to 100.0 ml volumetric flask, then added with solvent for dilution to the mark to obtain the control stock solution of impurities.
# Control solution of mixed impurities: 1.0 ml of the test solution was accurately taken, and added with solvent for dilution to 100.0 ml; 1.0 ml of the above solution was accurately taken, added with 1.0 ml of the control stock solution of mixed impurities, and added with solvent to 10.0 ml to obtain the control solution of mixed impurities.
# Preparation of system suitability solution: 1.0 ml of the control stock solution of mixed impurities was accurately taken, and added with the test solution for dilution to 10 ml to obtain the system suitability solution.
# Preparation of control solution: 1.0 ml of the test solution was taken, and added with solvent for dilution to 10.0 ml; 1.0 ml of the above solution was taken, and added with solvent for dilution to 100.0 ml to obtain the control solution.
Impurity A (0th month),Impurity D (0th month),Impurity L (0th month),Total impurities (0th month),Impurity A (1st month after acceleration),Impurity D (1st month after acceleration),Impurity L (1st month after acceleration),Total impurities (1st month after acceleration),Impurity A (2nd month after acceleration),Impurity D (2nd month after acceleration),Impurity L (2nd month after acceleration),Total impurities (2nd month after acceleration),Impurity A (3rd month after acceleration),Impurity D (3rd month after acceleration),Impurity L (3rd month after acceleration),Total impurities (3rd month after acceleration),Impurity A (6th month after acceleration),Impurity C (6th month after acceleration),Impurity D (6th month after acceleration),Impurity L (6th month after acceleration),SMILES,also measured
Impurity A: 0.05%,Impurity D: 0.02%,Impurity L: 0.02%,Total impurities: 0.09%,Impurity A: 0.03%,Impurity D: 0.02%,Impurity L: 0.01%,Total impurities: 0.06%,Impurity A: 0.04%,Impurity D: 0.02%,Impurity L: 0.01%,Total impurities: 0.07%,Impurity A: 0.06%,Impurity D: 0.01%,Impurity L: 0.02%,Total impurities: 0.08%,Impurity A: 0.06%,Impurity C 0.03%,Impurity D: 0.02%,Impurity L: 0.02%,"CC(C(=O)O)c1ccc2c(c1)Cc1cccnc1O2 (stereo not drawn) [Compound 20190101, pranoprofen]",Total impurities (6th month after acceleration): Total impurities: 0.17%; Maximum single impurity (6th month after acceleration): impurity: 0.02%
Impurity A: 0.07%,Impurity D: 0.02%,Impurity L: 0.01%,Total impurities: 0.10%,Impurity A: 0.07%,Impurity D: 0.03%,Impurity L: 0.01%,Total impurities: 0.11%,Impurity A: 0.07%,Impurity D: 0.02%,Impurity L: 0.01%,Total impurities: 0.10%,Impurity A: 0.07%,Impurity D: 0.02%,Impurity L: 0.02%,Total impurities: 0.11%,Impurity A: 0.10%,Impurity C 0.03%,Impurity D: 0.01%,Impurity L: 0.02%,"CC(C(=O)O)c1ccc2c(c1)Cc1cccnc1O2 (stereo not drawn) [Compound 20190201, pranoprofen]",Total impurities (6th month after acceleration): Total impurities: 0.24%; Maximum single impurity (6th month after acceleration): impurity: 0.08%
Impurity A: 0.02%,Impurity D: 0.02%,Impurity L: 0.01%,Total impurities: 0.05%,Impurity A: 0.05%,Impurity D: 0.01%,Impurity L: 0.02%,Total impurities: 0.06%,Impurity A: 0.04%,Impurity D: 0.02%,Impurity L: 0.01%,Total impurities: 0.07%,Impurity A: 0.04%,Impurity D: 0.02%,Impurity L: 0.01%,Total impurities: 0.07%,Impurity A: 0.09%,Impurity C 0.01%,Impurity D: 0.01%,Impurity L: 0.02%,"CC(C(=O)O)c1ccc2c(c1)Cc1cccnc1O2 (stereo not drawn) [Compound 20190202, pranoprofen]",Total impurities (6th month after acceleration): Total impurities: 0.15%; Maximum single impurity (6th month after acceleration): impurity: 0.02%
